Legend:
[1] = molecular target: Receptor-interacting serine/threonine-protein kinase 2 (Homo sapiens) (UniProt O43353); experiment: Inhibition of RIPK2 (unknown origin) at 1 uM relative to control
[2] = molecular target: Tyrosine-protein kinase Lck (Homo sapiens) (UniProt P06239); experiment: Inhibition of LCK (unknown origin) at 1 uM relative to control
A549 = experiment: Cytotoxicity against human A549 cells measured after 8 days; type: functional, cell-based; conditions: A549, 192 h
[3] = Cytotoxicity against human KMS-28PE cells measured after 8 days; type: functional, cell-based; conditions: 192 h
[4] = molecular target: Transcription initiation factor TFIID subunit 1-like (Homo sapiens, UniProt Q8IZX4); experiment: Binding affinity to human partial length TAF1L bromodomain 2 (Q1523 to D1654 residues) expressed in bacterial expression system by BROMOscan assay
HCC1937 = experiment: Cytotoxicity against human HCC1937 cells measured after 8 days; type: functional, cell-based; conditions: HCC1937, 192 h
Homo sapiens = species on record: Homo sapiens; experiment: Displacement of [3H]BRL 43694 from human recombinant 5-HT3 receptor at 10 uM after 120 mins by scintillation counting analysis relative to control
EPLC-272H = experiment: Cytotoxicity against human EPLC-272H cells measured after 8 days; type: functional, cell-based; conditions: 192 h
NCI-H661 = experiment: Cytotoxicity against human NCI-H661 cells measured after 8 days; type: functional, cell-based; conditions: NCI-H661, 192 h
[5] = Cytotoxicity against human NCI-H2722 cells measured after 8 days; type: functional, cell-based; conditions: NCI-H2722, 192 h
[6] = molecular target: SWI/SNF-related matrix-associated actin-dependent regulator of chromatin subfamily A member 2 (Homo sapiens, UniProt P51531); experiment: Binding affinity to human partial length SMARCA2 (S1377 to Q1486 residues) expressed in bacterial expression system by BROMOscan assay
NCI-H520 = experiment: Cytotoxicity against human NCI-H520 cells measured after 8 days; type: functional, cell-based; conditions: NCI-H520, 192 h
NCI-H1993 = experiment: Cytotoxicity against human NCI-H1993 cells measured after 8 days; type: functional, cell-based; conditions: NCI-H1993, 192 h
NCI-H1155 = experiment: Cytotoxicity against human NCI-H1155 cells measured after 8 days; type: functional, cell-based; conditions: NCI-H1155, 192 h
[7] = Cytotoxicity against human GP2d cells measured after 8 days; type: functional, cell-based; conditions: 192 h
NCI-H2122 = experiment: Cytotoxicity against human NCI-H2122 cells measured after 8 days; type: functional, cell-based; conditions: NCI-H2122, 192 h
[8] = molecular target: T1, Muscarinic acetylcholine receptor M2 (Homo sapiens) (UniProt P08172); experiment: Displacement of [3H]AF-DX 384 from human recombinant M2 receptor at 10 uM after 60 mins by scintillation counting analysis relative to control
T1 sequence (whole entry): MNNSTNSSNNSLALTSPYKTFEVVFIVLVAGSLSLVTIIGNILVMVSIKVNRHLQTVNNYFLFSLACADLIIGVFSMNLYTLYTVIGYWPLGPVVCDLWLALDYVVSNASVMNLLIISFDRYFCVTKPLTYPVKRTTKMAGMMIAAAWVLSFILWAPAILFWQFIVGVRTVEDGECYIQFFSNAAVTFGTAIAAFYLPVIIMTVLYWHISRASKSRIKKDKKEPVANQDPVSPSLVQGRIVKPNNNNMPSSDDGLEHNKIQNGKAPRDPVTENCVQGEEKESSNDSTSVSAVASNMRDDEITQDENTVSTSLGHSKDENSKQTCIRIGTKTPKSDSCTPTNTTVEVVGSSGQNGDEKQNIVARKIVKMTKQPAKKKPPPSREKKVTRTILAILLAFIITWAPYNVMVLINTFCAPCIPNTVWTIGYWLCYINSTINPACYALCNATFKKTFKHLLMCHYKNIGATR

MCF7 = experiment: Cytotoxicity against human MCF7 cells measured after 8 days; type: functional, cell-based; conditions: MCF7, 192 h
NCI-H1437 = experiment: Cytotoxicity against human NCI-H1437 cells measured after 8 days; type: functional, cell-based; conditions: NCI-H1437, 192 h
NCI-H28 = experiment: Cytotoxicity against human NCI-H28 cells measured after 8 days; type: functional, cell-based; conditions: NCI-H28, 192 h
KP-4 = experiment: Cytotoxicity against human KP-4 cells measured after 8 days; type: functional, cell-based; conditions: KP-4, 192 h
SW48 = experiment: Cytotoxicity against human SW48 cells measured after 8 days; type: functional, cell-based; conditions: SW48, 192 h
[9] = molecular target: Bromodomain-containing protein 8 (Homo sapiens, UniProt Q9H0E9); experiment: Binding affinity to BRD8 bromodomain 2 (unknown origin) by BROMOscan assay
[10] = molecular target: Beta-2 adrenergic receptor (Homo sapiens) (UniProt P07550); experiment: Displacement of [3H](-)CGP 12177 from human recombinant beta2 adrenoceptor at 10 uM after 120 mins by scintillation counting analysis relative to control
NCI-H1838 = experiment: Cytotoxicity against human NCI-H1838 cells measured after 8 days; type: functional, cell-based; conditions: NCI-H1838, 192 h
HOP-62 = experiment: Cytotoxicity against human HOP-62 cells measured after 8 days; type: functional, cell-based; conditions: HOP-62, 192 h
COLO-741 = experiment: Cytotoxicity against human COLO-741 cells measured after 8 days; type: functional, cell-based; conditions: COLO-741, 192 h
[11] = molecular target: Histone acetyltransferase KAT2B (Homo sapiens, UniProt Q92831); experiment: Binding affinity to human partial length PCAF (G715 to D831 residues) expressed in bacterial expression system by BROMOscan assay
Raji = experiment: Cytotoxicity against human Raji cells measured after 8 days; type: functional, cell-based; conditions: 192 h
[12] = Cytotoxicity against human MOLM16 cells measured after 8 days; type: functional, cell-based, MOLM-16; conditions: MOLM16, 192 h
ABC-1 = experiment: Cytotoxicity against human ABC-1 cells measured after 8 days; type: functional, cell-based; conditions: ABC-1, 192 h
CAL-120 = experiment: Cytotoxicity against human CAL-120 cells measured after 8 days; type: functional, cell-based; conditions: CAL-120, 192 h
[13] = molecular target: RAC-alpha serine/threonine-protein kinase (Homo sapiens) (UniProt P31749); experiment: Inhibition of AKT1 (unknown origin) at 1 uM relative to control
HCC1143 = experiment: Cytotoxicity against human HCC1143 cells measured after 8 days; type: functional, cell-based; conditions: HCC1143, 192 h
[14] = Cytotoxicity against human HCC2302 cells measured after 8 days; type: functional, cell-based; conditions: HCC2302, 192 h
[15] = molecular target: Ribosomal protein S6 kinase alpha-2 (Homo sapiens) (UniProt Q15349); experiment: Inhibition of RSK3 (unknown origin) at 1 uM relative to control
CAMA-1 = experiment: Cytotoxicity against human CAMA-1 cells measured after 8 days; type: functional, cell-based; conditions: CAMA-1, 192 h
NCI-H358 = experiment: Cytotoxicity against human NCI-H358 cells measured after 8 days; type: functional, cell-based; conditions: NCI-H358, 192 h
[16] = Cytotoxicity against human HCC4019 cells measured after 8 days; type: functional, cell-based; conditions: HCC4019, 192 h
[17] = molecular target: Proto-oncogene tyrosine-protein kinase receptor Ret (Homo sapiens) (UniProt P07949); experiment: Inhibition of Ret (unknown origin) at 1 uM relative to control
HCC827 = experiment: Cytotoxicity against human HCC827 cells measured after 8 days; type: functional, cell-based; conditions: HCC827, 192 h

Sequence of Beta-2 adrenergic receptor (Homo sapiens) (P07550 whole entry, looked up): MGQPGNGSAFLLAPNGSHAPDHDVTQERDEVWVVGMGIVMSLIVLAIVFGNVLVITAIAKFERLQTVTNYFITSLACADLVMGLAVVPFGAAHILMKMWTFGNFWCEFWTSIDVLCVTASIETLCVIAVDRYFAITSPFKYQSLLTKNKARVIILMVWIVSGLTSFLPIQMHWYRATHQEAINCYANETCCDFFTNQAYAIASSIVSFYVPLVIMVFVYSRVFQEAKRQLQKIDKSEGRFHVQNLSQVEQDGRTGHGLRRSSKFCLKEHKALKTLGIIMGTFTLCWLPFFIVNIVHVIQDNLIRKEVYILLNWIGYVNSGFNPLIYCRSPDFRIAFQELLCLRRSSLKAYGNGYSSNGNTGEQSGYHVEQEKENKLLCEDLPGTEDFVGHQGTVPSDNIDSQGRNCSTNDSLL
Sequence of RAC-alpha serine/threonine-protein kinase (Homo sapiens) (P31749 whole entry): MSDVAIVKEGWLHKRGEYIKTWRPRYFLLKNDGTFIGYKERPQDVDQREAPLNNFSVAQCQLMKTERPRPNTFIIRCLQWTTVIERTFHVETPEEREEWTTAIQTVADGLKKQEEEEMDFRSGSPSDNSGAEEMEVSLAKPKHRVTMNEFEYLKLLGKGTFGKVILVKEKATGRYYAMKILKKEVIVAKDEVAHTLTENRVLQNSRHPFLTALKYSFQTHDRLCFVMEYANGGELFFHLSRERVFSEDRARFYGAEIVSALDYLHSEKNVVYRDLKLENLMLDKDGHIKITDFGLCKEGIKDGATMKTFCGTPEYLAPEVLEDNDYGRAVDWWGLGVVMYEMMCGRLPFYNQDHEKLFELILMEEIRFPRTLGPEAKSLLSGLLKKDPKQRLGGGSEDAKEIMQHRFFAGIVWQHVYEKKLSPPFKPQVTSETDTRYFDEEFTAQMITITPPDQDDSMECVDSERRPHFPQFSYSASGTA
Sequence of Ribosomal protein S6 kinase alpha-2 (Homo sapiens) (Q15349 whole entry): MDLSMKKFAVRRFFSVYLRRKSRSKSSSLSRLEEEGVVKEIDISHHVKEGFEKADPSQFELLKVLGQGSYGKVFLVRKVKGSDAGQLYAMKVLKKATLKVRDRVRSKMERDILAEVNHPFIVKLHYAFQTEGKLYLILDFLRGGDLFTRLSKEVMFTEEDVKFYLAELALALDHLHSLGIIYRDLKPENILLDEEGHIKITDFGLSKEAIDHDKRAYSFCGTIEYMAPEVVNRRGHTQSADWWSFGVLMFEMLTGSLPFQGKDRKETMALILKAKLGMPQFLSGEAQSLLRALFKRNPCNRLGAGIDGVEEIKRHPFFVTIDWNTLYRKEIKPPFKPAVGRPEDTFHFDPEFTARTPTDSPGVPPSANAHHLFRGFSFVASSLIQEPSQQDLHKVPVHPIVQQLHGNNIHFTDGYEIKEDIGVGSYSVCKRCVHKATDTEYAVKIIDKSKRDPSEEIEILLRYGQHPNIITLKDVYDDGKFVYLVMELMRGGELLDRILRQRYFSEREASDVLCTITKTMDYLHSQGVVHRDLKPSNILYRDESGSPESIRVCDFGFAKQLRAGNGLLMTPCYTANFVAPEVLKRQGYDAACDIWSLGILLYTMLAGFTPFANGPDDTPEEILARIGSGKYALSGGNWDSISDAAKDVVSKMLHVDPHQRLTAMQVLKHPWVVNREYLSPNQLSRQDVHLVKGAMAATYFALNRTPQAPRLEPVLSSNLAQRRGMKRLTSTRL
Sequence of Proto-oncogene tyrosine-protein kinase receptor Ret (Homo sapiens) (P07949 whole entry): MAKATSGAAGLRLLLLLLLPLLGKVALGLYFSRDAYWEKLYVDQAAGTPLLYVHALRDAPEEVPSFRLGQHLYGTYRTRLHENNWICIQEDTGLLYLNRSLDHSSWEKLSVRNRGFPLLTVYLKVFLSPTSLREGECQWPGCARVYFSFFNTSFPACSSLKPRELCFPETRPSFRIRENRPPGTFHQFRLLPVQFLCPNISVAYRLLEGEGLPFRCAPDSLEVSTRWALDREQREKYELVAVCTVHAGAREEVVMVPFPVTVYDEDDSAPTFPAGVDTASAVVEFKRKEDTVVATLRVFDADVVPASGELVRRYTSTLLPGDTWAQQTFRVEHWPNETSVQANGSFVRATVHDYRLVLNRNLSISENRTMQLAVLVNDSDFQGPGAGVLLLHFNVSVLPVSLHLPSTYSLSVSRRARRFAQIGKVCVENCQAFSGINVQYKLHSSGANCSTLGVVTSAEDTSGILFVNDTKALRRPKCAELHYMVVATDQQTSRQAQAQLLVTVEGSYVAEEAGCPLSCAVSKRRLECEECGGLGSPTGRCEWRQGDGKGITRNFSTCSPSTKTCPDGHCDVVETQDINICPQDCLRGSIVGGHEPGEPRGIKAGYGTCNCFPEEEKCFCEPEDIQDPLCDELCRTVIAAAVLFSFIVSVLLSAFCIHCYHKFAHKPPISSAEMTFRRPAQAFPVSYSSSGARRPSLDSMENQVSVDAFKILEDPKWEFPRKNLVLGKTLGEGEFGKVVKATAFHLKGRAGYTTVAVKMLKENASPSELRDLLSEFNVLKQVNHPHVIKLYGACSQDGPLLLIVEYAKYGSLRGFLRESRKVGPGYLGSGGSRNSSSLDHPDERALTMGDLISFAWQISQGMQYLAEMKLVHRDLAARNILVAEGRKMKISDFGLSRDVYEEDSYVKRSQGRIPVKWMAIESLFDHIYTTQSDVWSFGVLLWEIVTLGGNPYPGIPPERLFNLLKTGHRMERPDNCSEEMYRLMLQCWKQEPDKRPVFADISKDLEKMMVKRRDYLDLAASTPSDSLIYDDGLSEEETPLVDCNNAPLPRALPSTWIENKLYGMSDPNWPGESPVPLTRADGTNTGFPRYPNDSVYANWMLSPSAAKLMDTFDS
Sequence of Histone acetyltransferase KAT2B (Q92831 whole entry, the tested form may be a part): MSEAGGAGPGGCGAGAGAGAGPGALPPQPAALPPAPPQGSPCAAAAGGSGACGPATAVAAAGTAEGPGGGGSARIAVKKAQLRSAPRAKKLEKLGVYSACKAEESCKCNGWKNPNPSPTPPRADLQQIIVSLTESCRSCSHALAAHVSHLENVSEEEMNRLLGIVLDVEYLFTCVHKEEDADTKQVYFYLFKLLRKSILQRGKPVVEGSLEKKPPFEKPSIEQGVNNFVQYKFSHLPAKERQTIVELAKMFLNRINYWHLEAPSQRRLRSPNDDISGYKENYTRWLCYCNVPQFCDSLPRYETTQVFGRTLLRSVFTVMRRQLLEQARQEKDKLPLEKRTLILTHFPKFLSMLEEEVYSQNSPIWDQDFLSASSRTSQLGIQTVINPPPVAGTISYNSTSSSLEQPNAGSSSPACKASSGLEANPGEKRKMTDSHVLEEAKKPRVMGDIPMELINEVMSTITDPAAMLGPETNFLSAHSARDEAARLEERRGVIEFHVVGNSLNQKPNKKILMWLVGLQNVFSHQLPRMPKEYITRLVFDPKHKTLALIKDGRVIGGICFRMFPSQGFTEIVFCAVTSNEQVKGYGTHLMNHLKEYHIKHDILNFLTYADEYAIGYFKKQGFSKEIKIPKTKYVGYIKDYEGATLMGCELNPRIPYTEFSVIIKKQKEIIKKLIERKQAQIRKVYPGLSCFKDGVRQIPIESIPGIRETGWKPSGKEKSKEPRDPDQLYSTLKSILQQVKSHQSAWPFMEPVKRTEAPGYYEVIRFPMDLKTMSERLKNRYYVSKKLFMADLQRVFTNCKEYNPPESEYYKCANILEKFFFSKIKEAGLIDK
Sequence of Bromodomain-containing protein 8 (Q9H0E9 whole entry): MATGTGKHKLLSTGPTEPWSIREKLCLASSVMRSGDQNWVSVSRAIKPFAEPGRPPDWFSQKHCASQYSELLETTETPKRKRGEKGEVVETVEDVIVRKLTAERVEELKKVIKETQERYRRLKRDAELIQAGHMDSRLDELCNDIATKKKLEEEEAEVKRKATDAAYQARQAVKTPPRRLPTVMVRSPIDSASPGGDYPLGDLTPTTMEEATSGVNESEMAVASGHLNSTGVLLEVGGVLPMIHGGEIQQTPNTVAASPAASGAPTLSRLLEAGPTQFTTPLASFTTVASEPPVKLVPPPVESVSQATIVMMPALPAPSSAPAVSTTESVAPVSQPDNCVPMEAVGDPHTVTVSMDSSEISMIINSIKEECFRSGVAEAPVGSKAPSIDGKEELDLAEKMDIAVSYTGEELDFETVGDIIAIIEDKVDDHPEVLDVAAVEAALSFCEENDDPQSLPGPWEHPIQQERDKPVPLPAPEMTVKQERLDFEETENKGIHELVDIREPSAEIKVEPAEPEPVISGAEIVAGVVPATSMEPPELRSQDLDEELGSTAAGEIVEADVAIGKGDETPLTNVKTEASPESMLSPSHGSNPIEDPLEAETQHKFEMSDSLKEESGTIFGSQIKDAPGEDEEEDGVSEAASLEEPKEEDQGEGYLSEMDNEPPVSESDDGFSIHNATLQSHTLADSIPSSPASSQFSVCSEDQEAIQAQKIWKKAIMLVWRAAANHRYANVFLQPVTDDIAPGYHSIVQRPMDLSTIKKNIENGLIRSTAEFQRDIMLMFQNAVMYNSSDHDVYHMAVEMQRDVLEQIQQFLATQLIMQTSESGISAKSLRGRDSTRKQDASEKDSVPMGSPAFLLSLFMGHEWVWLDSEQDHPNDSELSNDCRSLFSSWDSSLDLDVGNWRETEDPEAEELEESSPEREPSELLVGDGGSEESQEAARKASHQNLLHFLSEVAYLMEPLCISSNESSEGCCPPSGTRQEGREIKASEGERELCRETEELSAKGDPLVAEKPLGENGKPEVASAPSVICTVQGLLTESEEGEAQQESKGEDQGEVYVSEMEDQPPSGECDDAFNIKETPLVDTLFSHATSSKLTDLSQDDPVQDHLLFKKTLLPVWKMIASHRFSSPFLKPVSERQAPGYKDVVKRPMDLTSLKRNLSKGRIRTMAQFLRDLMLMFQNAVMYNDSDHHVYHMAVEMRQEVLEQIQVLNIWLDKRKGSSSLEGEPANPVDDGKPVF

For C/C=C/Cn1cc(-c2ccc(C(C)(C)O)cc2OC)c2cc[nH]c2c1=O, the inhibition [1] was -0.5%, the inhibition [2] was 19.5% and the IC50 (A549) was 20 µM. For the same molecule, the IC50 [3] was 20 µM, the Kd [4] was over 10 µM and the IC50 (HCC1937) was 20 µM. For the same molecule, the Activity (Homo sapiens) was -6%, the IC50 (EPLC-272H) was 20 µM and the IC50 (NCI-H661) was 20 µM. It also gave an IC50 [5] of 20 µM, a Kd [6] of over 10 µM and an IC50 (NCI-H520) of 20 µM. The IC50 (NCI-H1993) was 20 µM, the IC50 (NCI-H1155) was 20 µM and the IC50 [7] was 20 µM. It also gave an IC50 (NCI-H2122) of 20 µM, an Activity [8] of -10% and an IC50 (MCF7) of 20 µM. It also gave an IC50 (NCI-H1437) of 20 µM, an IC50 (NCI-H28) of 20 µM and an IC50 (KP-4) of 20 µM. For the same molecule, the IC50 (SW48) was 20 µM, the Kd [9] was over 10 µM and the Activity [10] was 5%. The IC50 (NCI-H1838) was 20 µM, the IC50 (HOP-62) was 20 µM and the IC50 (COLO-741) was 20 µM. The Kd [11] was over 10 µM, the IC50 (Raji) was 12.4 µM and the IC50 [12] was 17.8 µM. The IC50 (ABC-1) was 20 µM, the IC50 (CAL-120) was 20 µM and the inhibition [13] was 2.5%. The IC50 (HCC1143) was 20 µM, the IC50 [14] was 20 µM and the inhibition [15] was 5.5%. For the same molecule, the IC50 (CAMA-1) was 20 µM, the IC50 (NCI-H358) was 20 µM and the IC50 [16] was 20 µM. The inhibition [17] was 2% and the IC50 (HCC827) was 20 µM.

For C/C=C/Cn1cc(-c2ccc(C(=O)N3CCOCC3)cc2)c2cc[nH]c2c1=O, the inhibition [1] was -4.6%, the inhibition [2] was 6.5% and the IC50 (A549) was 20 µM. It also gave an IC50 [3] of 20 µM, a Kd [4] of 0.61 µM and an IC50 (HCC1937) of 20 µM. For the same molecule, the Activity (Homo sapiens) was -5%, the IC50 (EPLC-272H) was 20 µM and the IC50 (NCI-H661) was 20 µM. The IC50 [5] was 20 µM, the Kd [6] was over 10 µM and the IC50 (NCI-H520) was 20 µM. It also gave an IC50 (NCI-H1993) of 20 µM, an IC50 (NCI-H1155) of 20 µM and an IC50 [7] of 20 µM. It also gave an IC50 (NCI-H2122) of 20 µM, an Activity [8] of -7% and an IC50 (MCF7) of 20 µM. For the same molecule, the IC50 (NCI-H1437) was 20 µM, the IC50 (NCI-H28) was 20 µM and the IC50 (KP-4) was 20 µM. For the same molecule, the IC50 (SW48) was 20 µM, the Kd [9] was over 10 µM and the Activity [10] was 1%. For the same molecule, the IC50 (NCI-H1838) was 20 µM, the IC50 (HOP-62) was 20 µM and the IC50 (COLO-741) was 20 µM. It also gave a Kd [11] of over 10 µM, an IC50 (Raji) of 20 µM and an IC50 [12] of 9.59 µM. For the same molecule, the IC50 (ABC-1) was 20 µM, the IC50 (CAL-120) was 20 µM and the inhibition [13] was -2.1%. The IC50 (HCC1143) was 20 µM, the IC50 [14] was 20 µM and the inhibition [15] was -4.3%. It also gave an IC50 (CAMA-1) of 20 µM, an IC50 (NCI-H358) of 20 µM and an IC50 [16] of 20 µM. For the same molecule, the inhibition [17] was -0.9% and the IC50 (HCC827) was 20 µM.

C/C=C/Cn1cc(-c2cc(OC)c(C(C)(C)O)cc2OC)c2cc(C)[nH]c2c1=O showed a Kd [4] of over 10 µM, a Kd [6] of over 10 µM and a Kd [9] of over 10 µM. The Kd [11] was over 10 µM.

C/C=C/Cn1cc(-c2cc(OC)c(C(=O)N3CCOCC3)cc2OC)c2cc(C)[nH]c2c1=O gave an inhibition [1] of -1.5%, an inhibition [2] of 18.5% and an IC50 (A549) of 2 µM. It also gave an IC50 [3] of 2 µM, a Kd [4] of over 10 µM and an IC50 (HCC1937) of 2 µM. For the same molecule, the Activity (Homo sapiens) was -5%, the IC50 (EPLC-272H) was 2 µM and the IC50 (NCI-H661) was 2 µM. The IC50 [5] was 2 µM, the Kd [6] was over 10 µM and the IC50 (NCI-H520) was 2 µM. The IC50 (NCI-H1993) was 2 µM, the IC50 (NCI-H1155) was 2 µM and the IC50 [7] was 2 µM. For the same molecule, the IC50 (NCI-H2122) was 2 µM, the Activity [8] was -8% and the IC50 (MCF7) was 1.34 µM. The IC50 (NCI-H1437) was 2 µM, the IC50 (NCI-H28) was 2 µM and the IC50 (KP-4) was 2 µM. For the same molecule, the IC50 (SW48) was 2 µM, the Kd [9] was over 10 µM and the Activity [10] was -1%. For the same molecule, the IC50 (NCI-H1838) was 2 µM, the IC50 (HOP-62) was 2 µM and the IC50 (COLO-741) was 2 µM. The Kd [11] was over 10 µM, the IC50 (Raji) was 2 µM and the IC50 [12] was 2 µM. The IC50 (ABC-1) was 2 µM, the IC50 (CAL-120) was 2 µM and the inhibition [13] was 1.5%. For the same molecule, the IC50 (HCC1143) was 2 µM, the IC50 [14] was 2 µM and the inhibition [15] was 3.5%. It also gave an IC50 (CAMA-1) of 2 µM, an IC50 (NCI-H358) of 2 µM and an IC50 [16] of 2 µM. It also gave an inhibition [17] of 3% and an IC50 (HCC827) of 2 µM.
